Measurements taken from patent US7049311B1, “Pyrrolbenzodiazepines” (Spirogen Limited, priority 1998, dated 2006).

What was measured:
CH1cisR = assay: Ovarian carcinoma cytotoxicity assay; assay type: cell-based; settings: Homo sapiens, CH1cisR, 96 h, read-out: IC50 CH1cisR, cisplatin-resistant, 96 hours, sulphorhodamine B
Procedure, shortened: (§1)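 Cells attached overnight, then read 96 hours later by sulphorhodamine B staining of TCA-fixed cells, with absorbance at 540 nm. IC50 taken from concentration versus % absorbance relative to untreated wells; cisR lines are cisplatin-resistant.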

SKOV-3 = assay: Ovarian carcinoma cytotoxicity assay; assay type: cell-based; settings: Homo sapiens, SK-OV-3, 96 h, read-out: IC50 Skov3, 96 hours, sulphorhodamine B
Procedure, shortened: as §1

CH1 = assay: Ovarian carcinoma cytotoxicity assay; assay type: cell-based; settings: Homo sapiens, CH1, 96 h, read-out: IC50 CH1, 96 hours, sulphorhodamine B
Procedure, shortened: as §1

RXF 393 = assay: NCI in vitro cytotoxicity screen; assay type: cell-based; settings: Homo sapiens, RXF 393, 48 h, read-out: LC50
Procedure, shortened: (§2)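 SRB read-out after 48 h continuous compound exposure; LC50 = dose killing half the cells. Cells plated 5000-40,000/well, 24 h preincubation at 37° C. Five 10-fold concentrations, 10^−4 to 10^−8 […].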

MALME-3M = assay: NCI in vitro cytotoxicity screen; assay type: cell-based; settings: Homo sapiens, Malme-3M, 48 h, read-out: LC50
Procedure, shortened: as §2

SK-MEL-2 = assay: NCI in vitro cytotoxicity screen; assay type: cell-based; settings: Homo sapiens, SK-MEL-2, 48 h, read-out: LC50
Procedure, shortened: as §2

SK-MEL-28 = assay: NCI in vitro cytotoxicity screen; assay type: cell-based; settings: Homo sapiens, SK-MEL-28, 48 h, read-out: LC50
Procedure, shortened: as §2

M14 = assay: NCI in vitro cytotoxicity screen; assay type: cell-based; settings: Homo sapiens, M14, 48 h, read-out: LC50
Procedure, shortened: as §2

SF-539 = assay: NCI in vitro cytotoxicity screen; assay type: cell-based; settings: Homo sapiens, SF-539, 48 h, read-out: LC50
Procedure, shortened: as §2

NCI-H522 = assay: NCI in vitro cytotoxicity screen; assay type: cell-based; settings: Homo sapiens, NCI-H522, 48 h, read-out: LC50
Procedure, shortened: as §2

LOX IMVI = assay: NCI in vitro cytotoxicity screen; assay type: cell-based; settings: Homo sapiens, 48 h, read-out: LC50
Procedure, shortened: as §2

A2780 = assay: Ovarian carcinoma cytotoxicity assay; assay type: cell-based, human; settings: Homo sapiens, A2780, 96 h, read-out: IC50 A2780, 96 hours, sulphorhodamine B
Procedure, shortened: as §1

A2780cisR = assay: Ovarian carcinoma cytotoxicity assay; assay type: cell-based, human; settings: Homo sapiens, A2780cisR, 96 h, read-out: IC50 A2780cisR, cisplatin-resistant, 96 hours, sulphorhodamine B
Procedure, shortened: as §1

SF-295 = assay: cells; assay type: cell-based; settings: Homo sapiens, SF-295, 48 h, read-out: LC50
Experimental: The National Cancer Institute (NCI), Bethesda, Md., USA has available an in vitro cytotoxicity screen which consists of approximately 60 human tumour cell lines against which compounds are tested at a minimum of five concentrations each differing 10-fold. A 48 hour continuous exposure protocol is used, where cell viability or growth is estimated with an SRB protein assay.
The test compounds were evaluated against approximately 60 human tumour cell lines. The NCI screening procedures were described in detail by Monks and co-workers (Monks, A et al., Journal of the National Cancer Institute, 1991, 83, 757). Briefly, cell suspensions were diluted according to the particular cell type and the expected target cell density (5000-40,000 cells per well based on cell growth characteristics), and added by pipette (100 μL) into 96-well microtitre plates. The cells were allowed a preincubation period of 24 hours at 37° C. for stabilisation. Dilutions at twice the intended test concentration were added at time zero in 100 μL aliquots to the wells. The test compounds were evaluated at five 10-fold dilutions (10^−4, 10^−5, 10^−6, 10^−7 and 10^−8 μM). […] A plate reader was used to read the optical densities and a microcomputer processed the readings into LC50 values, which is the dosage required to kill half of the cells.

COc1cc2c(cc1OCCC(=O)N1CCCC1)N=C[C@@H]1CCCN1C2=O [UP2005 (161), 3-(7-methoxy-5-oxy(11aS)-2,3,5,11a-tetrahydro-1H-benzo[e]pyrrolo[1,2-a][1,4]diazepin-8-yloxy)-1-perhydro-1-pyrrolyl-1-propanone]
IC50 (CH1cisR): 1.85 µM | IC50 (SKOV-3): 5.4 µM | IC50 (CH1): 1.4 µM | CC50 (RXF 393): 6.8 µM | CC50 (MALME-3M): 7.5 µM | CC50 (SK-MEL-2): 7.6 µM | CC50 (SK-MEL-28): 6.5 µM | CC50 (M14): 6.2 µM | CC50 (SF-539): 7.7 µM | CC50 (NCI-H522): 8.7 µM | CC50 (LOX IMVI): 9.2 µM | IC50 (A2780): 1.5 µM | IC50 (A2780cisR): 4.3 µM | CC50 (SF-295): 8.8 µM
